From patent US5102884A, “Substituted benzoylurea compounds or their salts, processes for their production and antitumour compositions containing them” (Ishihara Sangyo Kaisha Ltd., priority 1989, dated 1992) come the findings set out here.

SMILES strings stand for the structures.

The term ILS denotes the gain in survival time of treated over control animals, in per cent.

For data set [1], the system named is P-388 leukemia. Nature of the data set: Antitumour activity, Test Example 2 (intraperitoneally transplanted--intravenously injected). Format: in vivo, BDF1 mouse. The following applies: 10 mg/kg (active ingredient mg/kg/day), i.v. from the tail, days 1 and 8; fatty emulsion (Formulation Example 10); saline control = 0%. The protocol: 1×10^6 of P-388 leukemia cells per mouse were intraperitoneally transplanted to BDF1 mouse. Each formulation (formulated in accordance with the below-mentioned Formulation Example 10) was intravenously injected from the tail on days 1 and 8 after the transplantation.
The increase life span (ILS, %) of each treated group was determined on such basis that the median survival time of a control group to which a physiolosical saline was administered was regarded to be 0% of increase life span (ILS). In the cases where Compounds No. 1 and No. 11 were administered at a dose (active ingredient mg/kg/day) of 10 mg/kg, ILS (%) was 46 and 27, respectively. (Note) * The increase life span was calculated in the
same manner as in Test Example 1.

Data set [2] in a line: Solubility to a non-aqueous solvent, Test Example 3. The format is physicochemical. The settings on record: 18° to 20° C.; for Solubility, Medium chain triglyceride: medium chain triglyceride (ODO). On the procedure:
A stirring magnet was put into a 10 ml or 100 ml egg plant flask equipped with a stopper, and 50 mg of a test compound was introduced into this flask. Further, a suitable amount of a desired solvent was introduced thereinto, and the solubility was determined.

For data set [3], the system named is P-388 leukemia. Nature of the data set: Antitumour activity, Test Example 1 (intraperitoneally transplanted--intraperitoneally administered). The settings on record: i.p., days 1 and 8, mortality observed 30 days, saline control = 0%; for ILS at 50 mg/kg: 50 mg/kg/day active ingredient; for ILS at 6.25 mg/kg: 6.25 mg/kg/day active ingredient; for ILS at 100 mg/kg: 100 mg/kg/day active ingredient. Format: in vivo, BDF1 mouse. On the procedure: 1×10^6 of P-388 leukemia cells per mouse were intraperitoneally transplanted into BDF1 mouse. […] The increase life span of each group was determined on such basis that the medium survival time of a control group to which physiological saline was administered was regarded to be 0% of increase life span (ILS). […] | (Note) *Increase life span is calculated by the following equation: | Increase life span % (ILS) =- | [drawing 18]

Setting [4] is: 12.5 mg/kg/day active ingredient.
Setting [5] is: Mus musculus, P388, ip, 720 h, 12.5 mg/kg/day active ingredient, read-out: Increase life span (ILS).
[6] abbreviates: Mus musculus, P388, ip, 720 h, 25 mg/kg/day active ingredient, read-out: Increase life span (ILS).
Where [7] appears, read: Mus musculus, P388, ip, 720 h, read-out: Increase life span (ILS).

Take `Cc1cc(NC(=O)NC(=O)c2ccccc2N(C)C)ccc1Oc1ncc(Br)cn1` [Compound 1, N-[4-(5-bromo-2-pyrimidinyloxy)-3methylphenyl]-N'-[2-(dimethylamino)benzoyl]urea]: the entries for the “Increase life span (ILS)” value in the data set on P-388 leukemia [1], in the data set on P-388 leukemia [3] (setting [4]) and in the data set with P-388 leukemia [3] (25 mg/kg/day active ingredient) were 46%, 126% and 183%, respectively. Besides, the “Solubility, Medium chain triglyceride” value in data set [2] is listed as 2.1-2.3%. In addition, the “Solubility, Soybean oil” value in data set [2] is reported as 0.46-0.49%.

For `Cc1cc(NC(=O)NC(=O)c2ccccc2N(C)C)ccc1Oc1ncc(Br)cn1.Cl` [Compound 2, N-[4-(5-bromo-2-pyrimidinyloxy)-3methylphenyl]-N'-[2-(dimethylamino)benzoyl]urea hydrochloride], the “Increase life span (ILS)” value in the data set with P-388 leukemia [3] (setting [4]) is listed as 94%; with P-388 leukemia [3] (25 mg/kg/day active ingredient) it was 206%.

As to `Cc1cc(NC(=O)NC(=O)c2c(F)cccc2N(C)C)ccc1Oc1ncc(Br)cn1` [Compound 3], the ILS at 12.5 mg/kg in the data set on P-388 leukemia [3] (setting [5]) is 50%. Moreover, the ILS at 25 mg/kg with P-388 leukemia [3] (setting [6]) stood at 150%. As for `CN(C)c1cccc(F)c1C(=O)NC(=O)Nc1ccc(Oc2ncc(Br)cn2)c(Cl)c1` [Compound 4], in the data set with P-388 leukemia [3] (setting [7]), the increase in lifespan (ILS) at 50 mg/kg turned out to be 135%. Regarding `CN(C)c1ccccc1C(=O)NC(=O)Nc1ccc(Oc2ncc(Br)cn2)c(C(F)(F)F)c1` [Compound 9, N-[4-(5-bromo-pyrimidinyloxy)-3-trifluoromethylphenyl]-N'-[2(dimethylamino)benzoyl]urea], the ILS at 12.5 mg/kg in the data set with P-388 leukemia [3] (setting [5]) stood at 80%. Take `CN(C)c1ccccc1C(=O)NC(=O)Nc1ccc(Oc2ncc(Cl)cn2)c(C(F)(F)F)c1` [Compound 10, N-[4-(5-chloro-2-pyrimidinyloxy)-3-trifluoromethylphenyl]-N'-[2-(dimethylamino)benzoyl]urea]: the ILS at 12.5 mg/kg with P-388 leukemia [3] (setting [5]) turned out to be 39%. Consider `Cc1cc(NC(=O)NC(=O)c2ccccc2N(C)C)ccc1Oc1ncc(Cl)cn1` [Compound 11, N-[4-(5-chloro-2-pyrimidinyloxy)-3methylphenyl]-N'-[2-(dimethylamino)benzoyl]urea], for which the “Increase life span (ILS)” value in the data set on P-388 leukemia [1] came out at 27%. Also, in data set [2], the “Solubility, Medium chain triglyceride” value is recorded as 1.5-1.8% and the “Solubility, Soybean oil” value is recorded as 0.15-0.16%. For the same compound, in the data set with P-388 leukemia [3] (setting [6]), the ILS at 25 mg/kg stood at 99%. Further, the ILS at 50 mg/kg with P-388 leukemia [3] (setting [7]) came to 132%. `CN(C)c1ccccc1C(=O)NC(=O)Nc1ccc(Oc2ncc(Br)cn2)c([N+](=O)[O-])c1` [Compound 13]: the increase in life span (ILS) at 50 mg/kg with P-388 leukemia [3] (setting [7]) amounted to 27%. As to `Nc1ccccc1C(=O)NC(=O)Nc1ccc(Oc2ncc(Br)cn2)c(Cl)c1` [Compound 26, N-(2-aminobenzoyl)-N'-[4-(5-bromo-2-pyrimidinyloxy)-3-chlorophenyl]urea], in the data set with P-388 leukemia [3] (setting [5]), the ILS at 12.5 mg/kg came out at 93%. Besides, the ILS at 25 mg/kg with P-388 leukemia [3] (setting [6]) is greater than 137%. For the compound `Cc1cc(NC(=O)NC(=O)c2ccccc2N)ccc1Oc1ncc(Br)cn1` [Compound 27, N-(2-aminobenzoyl)-N'-[4-(5-bromo-2-pyrimidinyloxy)-3-methylphenyl]urea], the ILS at 12.5 mg/kg in the data set on P-388 leukemia [3] (setting [5]) was 126%. The increase in life span (ILS) at 25 mg/kg in the data set with P-388 leukemia [3] (setting [6]) turned out to be 160%.

With `CCN(CC)c1ccccc1C(=O)NC(=O)Nc1ccc(Oc2ncc(Br)cn2)c(C)c1` [Compound 33], the “Solubility, Soybean oil” value in data set [2] was “at least 13.6%”. Also, in the data set with P-388 leukemia [3] (setting [6]), the ILS at 25 mg/kg came out at 49%.

`Cc1cc(NC(=O)NC(=O)c2ccccc2N2CCOCC2)ccc1Oc1ncc(Br)cn1` [Compound 34, N-[4-(5-bromo-2-pyrimidinyloxy)-3-methylphenyl]-N'-(2-morpholinobenzoyl)urea]: the increase in lifespan (ILS) at 6.25 mg/kg in the data set on P-388 leukemia [3] (setting [7]) is 49%. For `COc1cc(NC(=O)NC(=O)c2ccccc2N(C)C)ccc1Oc1ncc(Cl)cn1` [Compound 35], in the data set with P-388 leukemia [3] (setting [7]), the increase in lifespan (ILS) at 100 mg/kg amounted to 27%. Also, in the data set with P-388 leukemia [3] (Mus musculus, P388, ip, 720 h, 200 mg/kg/day active ingredient, read-out: Increase life span (ILS)), the ILS at 200 mg/kg was found to be 53%. On to `CN(C)c1ccccc1C(=O)NC(=O)Nc1ccc(Oc2ncc(Cl)cn2)c([N+](=O)[O-])c1` [Compound 36], for which the ILS at 100 mg/kg in the data set on P-388 leukemia [3] (setting [7]) worked out at 68%. On to `CC(=O)Nc1ccccc1C(=O)NC(=O)Nc1ccc(Oc2ncc(Br)cn2)c(C)c1` [Compound 49, N-[2-(acetylamino]benzoyl]-N'-[4-(5-bromo-2-pyrimidinyloxy)-3-methylphenyl]urea], for which the ILS at 12.5 mg/kg with P-388 leukemia [3] (setting [5]) came out at 39%. Besides, the ILS at 25 mg/kg in the data set on P-388 leukemia [3] (setting [6]) turned out to be 59%.

Take `CCCC(=O)Nc1ccccc1C(=O)NC(=O)Nc1ccc(Oc2ncc(Br)cn2)c(C)c1` [Compound 50]: the ILS at 25 mg/kg in the data set on P-388 leukemia [3] (setting [6]) was determined as 49%. For the same compound, in the data set on P-388 leukemia [3] (setting [7]), the ILS at 50 mg/kg was determined as 150%. In the case of `CCCCCCCCC(=O)Nc1ccccc1C(=O)NC(=O)Nc1ccc(Oc2ncc(Br)cn2)c(C)c1` [Compound 51], the ILS at 50 mg/kg in the data set on P-388 leukemia [3] (setting [7]) came out at 184%. Regarding `CC(=O)N(C)c1ccccc1C(=O)NC(=O)Nc1ccc(Oc2ncc(Br)cn2)c(C)c1` [Compound 52], in the data set on P-388 leukemia [3] (setting [7]), the ILS at 6.25 mg/kg was found to be 39%. Also, the increase in life span (ILS) at 12.5 mg/kg in the data set on P-388 leukemia [3] (setting [5]) came to 139%. On to `Cc1cc(NC(=O)NC(=O)c2ccccc2N(S(C)(=O)=O)S(C)(=O)=O)ccc1Oc1ncc(Br)cn1` [Compound 54], for which the increase in lifespan (ILS) at 50 mg/kg in the data set on P-388 leukemia [3] (setting [7]) is 49%.
